Source: article PMC9394307, “Discovery of Putative Dual Inhibitor of Tubulin and EGFR by Phenotypic Approach on LASSBio-1586 Homologs” (Pharmaceuticals, 2022)
“And” between values parts separate entries of the source, which are not always exact repeats. Equal entries are not always repeated. Where two headings read alike, the source gives them in different places.

What was measured:
PC-9 = assay: MTT cell viability assay, PC-9; format: cell-based, human; conditions: MTT, value (95% CI), read-out: CC50 (µM) (CI) PC-9
Procedure: (§1) The cytotoxic activity of compounds 3–13 was determined based on an MTT assay against different human tumor cell lines, using LASSBio-1586 (2), LASSBio-1735 (3), CA-4 (1) and pelitinib as standards (Table 2). To determine the cytotoxic selectivity index, compounds were also evaluated toward human lymphocytes (Table 3).
(§2) The target compounds were tested (0.0001–100 µM) for cytotoxic activity against selected human cancer cell lines, such as HL-60 (acute promyelocytic leukemia), MCF-7 (mammary adenocarcinoma), PC-3 (prostate adenocarcinoma), H1975 (non-small cell lung cancer—EGFR^L858R+T790M), PC-9 (non-small cell lung cancer—EGFR^L858R) H292 (mucoepidermoid pulmonary carcinoma—EGFR wild type), LoVo (colorectal adenocarcinoma—EGFRwild type) and GM16000 (lymphocyte). All the human cancer cell lines were purchased from Cell Bank of Rio de Janeiro—BCRJ. They were cultured in RPMI 1640 medium with 10% (v/v) FBS, 2 mM glutamine, at 37 °C in a humidified incubator containing 5% CO2.
(§3) The cytotoxicity of the compounds was evaluated by the MTT assay. […] For lymphocytic lines, a density of 0.3 × 10^6 cells/mL was used. Afterwards they were treated with varying concentrations of the target compounds 2–12 (0.0001–100 µM), CA-4 (1) and pelitinib at 37 °C, in triplicate. The medium was incubated with 20 μL of 5 mg/mL MTT solution for 3 h in a humidified incubator containing 5% CO2 [11].
(§4) The purple-colored formazan crystals formed in the wells were dissolved in DMSO and their absorbance was measured at 595 nm with a microplate reader (SpectraMax M5, Molecular Devices).

LoVo [1] = assay: MTT cell viability assay, LoVo; format: cell-based; conditions: Homo sapiens, MTT, 72 h, value (95% CI), read-out: CC50 (µM) (CI) LoVo
Procedure: as §1, §2
(§5) The cytotoxicity of the compounds was evaluated by the MTT assay. The cell lines were cultured in 96 well plates for 72 h with a density of 0.1 × 10^5 cells/mL to 0.7 × 10^5 cells/mL to adherent cell lines. For lymphocytic lines, a density of 0.3 × 10^6 cells/mL was used. Afterwards they were treated with varying concentrations of the target compounds 2–12 (0.0001–100 µM), CA-4 (1) and pelitinib at 37 °C, in triplicate. The medium was incubated with 20 μL of 5 mg/mL MTT solution for 3 h in a humidified incubator containing 5% CO2 [11].
as §4

H1975 = assay: MTT cell viability assay, H1975; format: cell-based, human; conditions: MTT, value (95% CI), read-out: CC50 (µM) (CI) H1975
Procedure: as §1, §2, §3, §4

[2] = MTT cell viability assay, GM16000 lymphocytes; format: cell-based; conditions: GM16000 lymphocyte cells (non-tumor), human lymphocytes, value (95% CI)
H292 = assay: MTT cell viability assay, H292; format: cell-based, human; conditions: MTT, value (95% CI), read-out: CC50 (µM) (CI) H292
Procedure: as §1, §2, §3, §4

HL-60 = assay: MTT cell viability assay, HL-60; format: cell-based, human; conditions: Homo sapiens, MTT, value (95% CI), read-out: CC50 (µM) (CI) HL-60
Procedure: as §1, §2, §3, §4

MCF-7 = assay: MTT cell viability assay, MCF-7; format: cell-based, human; conditions: Homo sapiens, MCF7, 72 h, MTT, 72 h; value (95% CI); read-out: CC50 (µM) (CI) MCF-7
Procedure: as §1, §2, §5, §4

LoVo [3] = assay: MTT cell viability assay, LoVo; format: cell-based; conditions: Homo sapiens, 48 h, value (95% CI)
PC-3 = assay: MTT cell viability assay, PC-3; format: cell-based; conditions: Homo sapiens, PC-3; MTT, 72 h; value (95% CI); read-out: CC50 (µM) (CI) PC-3
Procedure: as §1, §2, §5, §4

[4] = MTT cell viability assay, GM16000 lymphocytes; format: cell-based; conditions: GM16000 lymphocyte cells (non-tumor), human lymphocytes, value (95% CI); remark: listed apart in the source
Procedure: as §1
To establish the cytotoxic selective index (SI) of LASSBio-1586 homologs, they were studied on human lymphocyte cell lines (GM16000), using the MTT assay. The SI was calculated by the ratio between the CC50 on tumor and non-tumor cell lines. Although there is no consensus, values of SI ≥ 10 is considered satisfactory to assign safety to a new cytotoxic agent. This value means that the compound is more than ten times more cytotoxic to the tumor cell line than to normal cell line.
as §2, §5, §4

[5] = Homo sapiens, NCI-H1975, 48 h, 48 h
[6] = Homo sapiens, NCI-H1975, 72 h, 72 h
[7] = Homo sapiens, NCI-H292, 48 h, 48 h
[8] = Homo sapiens, NCI-H292, 72 h, 72 h

melting point	SMILES	CC50 (PC-9; Homo sapiens, PC-9, 48 h, 48 h)	CC50 (PC-9; Homo sapiens, PC-9, 72 h, 72 h)	CC50 (LoVo [1])	CC50 (H1975; [5])	CC50 (H1975; [6])	CC50 at 48 h [2]	CC50 (H292; [7])	CC50 (H292; [8])	CC50 (HL-60; HL-60, 48 h, 48 h)	CC50 (HL-60; HL-60, 72 h, 72 h)	CC50 (MCF-7)	CC50 (LoVo [3])	CC50 (PC-3)	CC50 at 72 h [4]	CC50 (PC-9; 48 h)	CC50 (H1975; 48 h)	CC50 (H292; 48 h)
	CCCN(/N=C/c1ccccc1)C(=O)c1cc(OC)c(OC)c(OC)c1 [LASSBio-2118 (5), (E)-N’-benzylidene-3,4,5-trimethoxy-N-propylbenzohydrazide]	0.263 µM	0.136 µM	0.031 µM	1.12 µM	0.775 µM	1.1 µM	0.181 µM	3.72 µM	1.46 µM	0.301 µM	0.144 µM	0.74 µM	0.432 µM	0.843 µM			
133.91 °C and 133 to 134 °C	C#CCN(/N=C/c1ccccc1)C(=O)c1cc(OC)c(OC)c(OC)c1 [LASSBio-2072 (9), (E)-N’-benzylidene-3,4,5-trimethoxy-N-(prop-2-yn-1-yl)benzohydrazide]	1.27 µM	0.46 µM	0.399 µM	5.34 µM	3.98 µM	2.52 µM	0.45 µM	3.14 µM	5.85 µM	0.158 µM	2.32 µM	3.05 µM	2.25 µM	0.612 µM			
83.94 °C and 83 to 84 °C	CCN(/N=C/c1ccccc1)C(=O)c1cc(OC)c(OC)c(OC)c1 [LASSBio-2071 (4), (E)-N’-benzylidene-N-ethyl-3,4,5-trimethoxybenzohydrazide]		0.384 µM	0.301 µM		4.86 µM	2 µM		2.55 µM	6.03 µM	0.231 µM	1.24 µM	3.05 µM	1.66 µM	5.13 µM	0.881 µM	4.91 µM	0.3 µM
64.47 °C and 64 to 65 °C	C=CCN(/N=C/c1ccccc1)C(=O)c1cc(OC)c(OC)c(OC)c1 [LASSBio-2069 (8), (E)-N-allyl-N’-benzylidene-3,4,5-trimethoxybenzohydrazide]	0.276 µM	0.387 µM	0.298 µM	1.65 µM	3.74 µM	0.095 µM	0.154 µM	0.778 µM	0.526 µM	1.35 µM	1.6 µM	0.808 µM	0.462 µM	0.83 µM			
	CCCCN(/N=C/c1ccccc1)C(=O)c1cc(OC)c(OC)c(OC)c1 [LASSBio-2121 (6), (E)-N’-benzylidene-N-butyl-3,4,5-trimethoxybenzohydrazide]	0.327 µM	0.096 µM	0.5 µM	1.71 µM	2.94 µM	1.2 µM	0.215 µM	9.55 µM	2.61 µM	2.17 µM	0.5 µM	2 µM	0.696 µM	0.961 µM			
	CCOc1cc2ncc(C#N)c(Nc3ccc(F)c(Cl)c3)c2cc1NC(=O)/C=C/CN(C)C [Pelitinib, reference compound]	0.325 µM	0.0591 µM	0.037 µM	2.57 µM	0.512 µM	0.899 µM	0.48 µM	0.0784 µM	3.42 µM	2.08 µM	3.91 µM	1.7 µM	2.48 µM	2.75 µM			
	COc1cc(C(=O)N(CCN2CCOCC2)/N=C/c2ccccc2)cc(OC)c1OC [LASSBio-2122 (12), (E)-N’-benzylidene-3,4,5-trimethoxy-N-(2-morpholinoethyl)benzohydrazide]	1.5 µM	0.871 µM	0.421 µM	6.37 µM	2.48 µM	3.8 µM	0.412 µM	2.79 µM	5.09 µM	4.15 µM	4.11 µM	1.05 µM	2.4 µM	5.65 µM			
